From a melting point compilation (Tetko et al.; mined from patent text by program, amines drawn as free bases though some values may be those of a salt) come the findings set out here.

For orientation: melting point means the temperature of the solid-liquid transition.

The structures appear in SMILES notation.

On to `C=CC[C@](N)(Cc1ccccc1)C(=O)O`, for which the melting point was in the range of 158 to 159 °C.
`CCOC(=O)C#CCOCC1=C(C(=O)OCC)C(c2cccc(Cl)c2Cl)C(C(=O)OC)=C(C)N1` (centres undefined) had a melting point of 123 to 125 °C.
Under `CCCc1nc2ccc(C(=O)NCc3ccc(N(C)C)cc3)cc2n1Cc1ccccc1Cl` stands 155 to 156 °C; under `COc1cc(COc2nn(-c3ccccc3)cc2C=O)ccc1OCc1csc(N2CCOCC2)n1`, 128 to 129 °C.
The figure for `COc1ccc(CNC(=O)C(=O)NCCc2ccccn2)c(C)c1` is 133 to 134 °C; for `CN1C(=O)CNN(c2cc(Cl)c(Oc3ccc(S(C)(=O)=O)cc3)c(Cl)c2)C1=O` it is 217 °C; for `O=[N+]([O-])c1ccc(C=COC=Cc2ccc([N+](=O)[O-])cc2)cc1` it is 59 to 61 °C.
With `COC(=O)c1cc(Cl)cc([N+](=O)[O-])c1N`, the melting point fell in the range of 110 to 111 °C.
`CC(=O)c1sc(Oc2ccc3c(c2)OCO3)c2c1CCc1cnn(C)c1-2`: the melting point fell in the range of 102 to 103 °C.
Take `CC#CCOc1ccc(SC(C(=O)NO)c2ccccc2)cc1` (centres undefined): the melting point stood at 151 °C.
In turn, `O=C(NC(Cc1ccccc1)C(=O)O)OCc1ccc(COCc2ccccc2)cc1` (centres undefined) yielded a melting point of 78.3 to 79.9 °C.
`Nc1cccc(Br)c1-c1ncc[nH]1` returned a melting point of 164 to 165 °C.
On to `CN(C)c1ccc(-c2cc(C(F)(F)F)c3c(-c4ccccc4)n[nH]c3n2)cc1`, for which the melting point came out at 227 °C.
Under `Cc1noc(C)c1C(=O)Nc1ccc(-n2nc(C3CC3)cc2C2CC2)cc1` stands 115 to 119 °C.
Molecule `COc1cc2oc(=O)c(CCO)c(C)c2cc1OC` had a melting point of 184 to 187 °C.
`COc1ncc(Br)c2nc(S(=O)(=O)Nc3c(Cl)cccc3Cl)nn12` came in with a melting point of 196 to 198 °C.
Take `CCOCCOc1nc2c(c3ccccc13)c1cc(Cl)ccc1n2C`: the melting point lay within 93.5 to 95.5 °C.
The figure for `Cc1ccc(-c2nc(O)c(-c3ccccc3)s2)cc1` is 252 to 255 °C.
On to `ClC(Cl)(Cl)c1nc(-c2ccccc2-c2ccc(CBr)cc2)no1`, for which the melting point is 77 to 79 °C.
`COc1ccc(CCN2CCC(Cc3nc4ncnc(O)c4n3Cc3ccc(F)cc3)CC2)cc1` gave a melting point of 122 °C.
The figure for `CC(C)NC(=O)CN1CCN(CCc2ccc(-c3cccc(N)n3)cc2)CC1` is 163 to 165 °C; for `O=S(=O)(NCc1ccnc2ccccc12)c1ccc(-c2ccc(Cl)cc2)s1` it is 185 to 186 °C; for `O=[N+]([O-])c1ccccc1OC1SCC(O)C(O)C1O` (centres undefined) it is 137 to 140 °C.
The figure for `COc1cc2ncc(C#N)c(Nc3ccccc3C(N)=O)c2cc1OC` is 238 to 240 °C; for `CCOC1=NS(=O)(=O)C(C(=O)OC(C)(C)C)=C1N` it is 128 to 130 °C.
As to `CCCCCCc1cnc(-c2ccc(CCCCC)c(F)c2)nc1`, the melting point was 30 °C.
Consider `CC(C)(O)C#Cc1ccccc1`, for which the melting point lay in the range of 52 to 53 °C.
`COc1cc(C(F)(F)F)nc(S(C)(=O)=O)n1` returned a melting point of 88 to 90 °C.
The molecule `Oc1ccc(-c2cc3ccccc3cn2)cc1` showed a melting point of 218 to 219 °C.
In turn, `O=CNCc1c[nH]c(=S)n1[C@H]1CCc2c(F)cc(F)cc2C1` came in with a melting point of 245 to 246 °C.
Consider `COc1cc(Nc2c(C#N)cnc3cc(-c4ccc(CN(C)C)cc4)sc23)cc(OC)c1OC`, for which the melting point is 199 to 201 °C.
Molecule `COc1ccc2c(c1)CC[C@@H](O)[C@@H]2n1nc(-c2c(-c3ccccc3)nn3ccccc23)ccc1=O` (relative stereo) displayed a melting point of 146 to 150 °C.
For the molecule `COc1cc(-c2cc(-c3ccccn3)no2)cc2oc(=O)c(C)c(C)c12`, the melting point stood at 193 °C.
As to `Brc1ccc(SCc2noc(CSc3ccc(Br)cc3)n2)cc1`, the melting point came out at 80 °C.
Molecule `COC1=CC(OC)(OC)C(I)C=C1C(=O)OCC(=O)c1ccccc1` (centres undefined) registered a melting point of 146 °C.
Under `COC(=O)C(=O)c1ccc(OCC(=O)c2cccc3ccccc23)cc1` stands 99 to 100 °C; under `N#CC(CCC1C2CCN1CC2)(c1ccccc1)c1ccccc1` (centres undefined), 79 to 81 °C; under `O=c1c2ccc(Cl)cc2n(Cc2ccccc2)c(=O)n1S(=O)(=O)c1ccc(Cl)cc1`, 242 to 244 °C.
Turning to `O=C(Nc1c(C(O)(C(F)(F)F)C(F)(F)F)ccc2ccccc12)c1ccc(OC(F)(F)F)cc1`, the melting point is 179 to 180 °C.
`Cc1c(F)c(Oc2cc(C(F)(F)F)nn2C)nc(Oc2cc(C(F)(F)F)nn2C)c1F` gave a melting point of 101 °C.
Under `COc1cc(CO)c(-c2cc3c(cc2CO)OCO3)c(OC)c1OC` stands 123 to 124 °C.
The molecule `Cn1nc2ccccc2c1C(=O)NCCN1CCC(c2ccc(F)cc2)CC1` gave a melting point of 105 to 107 °C.
In turn, `COc1cc(CCNc2ncnc3scnc23)ccc1O` displayed a melting point of 151 to 154 °C.
In the case of `C/C(=C\c1ccc(C(=O)O)cc1)c1ccc2c(c1)C(C)(C)CCS2(=O)=O`, the melting point is 245 to 247 °C.
Under `CNC(=O)[C@H](NC(=O)c1ccc(F)cc1C(F)(F)F)[C@@H](CN)c1ccccc1` (racemic) stands 188 °C; under `OCc1cc(-c2ccccc2)nn1Cc1ccc(Cl)cc1Cl`, 140 to 141 °C; under `O=C1NCNC12CCCc1ccccc12` (centres undefined), 181 to 183 °C.
`CN(C)/C(=C1/Sc2ccccc2C1=O)c1ccccc1` registered a melting point of 179 to 180 °C.
For the molecule `COc1cc(Nc2c(C#N)cnc3cc(-c4cc(CN5CCOCC5)c(CN5CCOCC5)s4)ccc23)c(Cl)cc1Cl`, the melting point fell in the range of 118 to 125 °C.
The figure for `O=C(OCc1c(F)c(F)nc(F)c1Cl)c1ccccc1` is 60 °C; for `COC(=O)C1=C(C)Nc2ccccc2SC1c1cccc([N+](=O)[O-])c1` (centres undefined) it is 140 to 142 °C; for `CCc1nc2c(N)nc3cc(CCC#N)ccc3c2n1CC1CCOCC1` it is 273 to 275 °C.
The molecule `O=C(Br)Cc1ccc(-c2cccc(Cl)c2)cc1` showed a melting point of 63 to 65 °C.
In turn, `Cc1ncccc1Oc1ccc(C(=N)Nc2cc(Cl)cc(NC(=O)C=Cc3ccccc3Cl)c2)cc1` returned a melting point of 105 to 107 °C.
Under `O=C(O)C1(c2ccsc2)CC1` stands 132 to 133 °C; under `CCN(c1ccc(F)cc1[N+](=O)[O-])S(=O)(=O)c1ccc(C)cc1`, 93 to 94.5 °C; under `CSC1=Nc2ccc(Cl)cc2Nc2cscc21`, 152 to 154 °C.
The figure for `Cc1ccc2[nH]c(=O)oc2c1` is 144 to 145 °C; for `CCOC(=O)c1cccc(CSCCNC(=O)c2c(Cl)cccc2Cl)c1` it is 43 to 45 °C.
`CC(C)CCOCC(O)C(CC(C)C)NC(=O)C(Cc1c[nH]cn1)NC(=O)C(CC(=O)NCCc1ccccc1)Cc1cccc2ccccc12` (mixture of isomers): the melting point is 73 to 76 °C.
As to `OC1Cc2cc(F)ccc2Sc2ccccc21` (centres undefined), the melting point fell in the range of 110 to 113 °C.
Molecule `CCn1c(=O)sc2cc([N+](=O)[O-])ccc21` returned a melting point of 200 to 203 °C.
On to `COC(=O)c1cc(C(C)=O)cnc1C1=NC(C)(C(C)C)C(=O)N1` (centres undefined), for which the melting point is 105 to 108 °C.
In turn, `CC(C)(C)OC(=O)NCCOc1ccccc1OCCBr` returned a melting point of 74 to 75 °C.
With `COc1cc2c(cc1-c1ccccc1)CCCc1c-2nc2ccc(F)cc2c1C(=O)O`, the melting point is more than 300 °C.
In turn, `N#CNC(=NCCN)NC1CCCC(c2csc(NC(=N)N)n2)C1` (centres undefined) yielded a melting point of 203 to 205 °C.
In the case of `CCCc1nc(C)nc(NN)c1Cc1ccc(-c2ccccc2C#N)cc1`, the melting point was found to be 156 °C.
In the case of `O=c1oc(-c2ccccc2)nc2cccc(Cl)c12`, the melting point was in the range of 151 to 153 °C.
`CCC(CC)Oc1cc(C)nc2c1n(C)c(=O)n2-c1c(C)cc(C)cc1C` gave a melting point of 151 to 153 °C.
For the molecule `COC(=S)N=C(N)SC`, the melting point was 75 to 76 °C.
Consider `O=C(NCCCN1CCC(c2ccccc2)(c2ccccc2)CC1)N1C(=O)OCC1c1ccc(F)c(Cl)c1` (centres undefined), for which the melting point is 112 to 115 °C.
The molecule `CNC(=NCCCSCc1[nH]cnc1C)NC#N` returned a melting point of 156 to 158 °C.
Molecule `COc1ccc2c(c1)CCC1C2C(OC(C)=O)CC2(C)C(OC(C)=O)CCC12` (centres undefined) showed a melting point of 214 to 215 °C.
In turn, `Cc1cc2c(F)c(Oc3cc(Cl)nc(N)n3)ccc2[nH]1` gave a melting point of 255 to 258 °C.
As for `CC(=O)OC1CC(C)(C)N(OC(=O)C23CC4CC(CC(C4)C2)C3)C(C)(C)C1`, the melting point lay within 132 to 134 °C.
Under `CC(C)(C)c1cc(SC2(Sc3cc(C(C)(C)C)c(O)c(C(C)(C)C)c3)CCCC2)cc(C(C)(C)C)c1O` stands 138 to 143 °C.
With `Cn1c(=O)c2c(ncn2CCCC#N)n(C)c1=O`, the melting point was 146 to 150 °C.
`CCCCCCCCCCCCCCCCCCCCC(=S)NCCN1CCOCC1`: the melting point was 61 °C.
Take `Cc1ccc(N)cc1Nc1ncc(-c2ccc(C#N)cc2)o1`: the melting point is 144 °C.
In turn, `NC(=O)Cc1ccc(-c2ccc3nnn(Cc4ccc5ncccc5c4)c3n2)cc1` came in with a melting point of 220 to 223 °C.
Consider `Nc1cc(C(=O)NCC(=O)O)ccc1F`, for which the melting point lay in the range of 150 to 152 °C.
As to `CC(=O)NC(=O)c1cncc([N+](=O)[O-])c1`, the melting point was 162 to 163 °C.
The figure for `COC(=O)Nc1cccc(CC(=O)NC(C)(C)C)c1` is 123 to 124 °C; for `CC1CC(C)CN(CCNc2ccnc3cc(Cl)ccc23)C1` (centres undefined) it is 142 to 143 °C.
Turning to `CC(C)Oc1ccc(OCc2ccccc2)cc1-c1nc2cc(C=O)cnc2[nH]1`, the melting point was 170 to 171 °C.
Take `CC(C)(C)c1cc(C#N)c(Nc2ccccc2[N+](=O)[O-])s1`: the melting point fell in the range of 85 to 90 °C.
The molecule `Fc1ccc(CC[C@H]2CNCCN2)cc1` yielded a melting point of 112 to 114 °C.
For `CCOC(=O)c1cc2cc(OCCCS(C)(=O)=O)cc(N)c2[nH]1`, the melting point lay within 187 to 188 °C.
`O=C(NCc1cccnc1)c1ccc2n1Cc1ccccc1N(C(=O)c1ccc(-c3ccccc3CO)cc1)C2` yielded a melting point of 119 to 121 °C.
